Reference: patent publication US8778915B2, “Method for the treatment of central nervous system cancers and compositions related thereto” (Emory University, priority 2010, dated 2014)

Columns and labels:
PC-12 cells = experiment: Survival of PC-12 cells treated with cyclodextrin; type: cell-based; details: 48 h, very high concentration (320 uM)
Experimental: PC-12 cells were treated with different concentrations of cyclodextrin for 48 h. The values are expressed as mean±SD of duplicate samples. This experiment was done to answer the question if any compound can kill tumor cells at high doses. B-Cyclodextrin is an inert compound and used as a vehicle for Progesterone.

[1] = test system: human neuroblastoma (SK-N-AS) cells; experiment: MTT cell viability, single 48 h exposure, neuroblastoma cells; type: cell-based; details: single exposure 48 hours, at 5 μM and 10 μM, P<0.05 compared to control
Experimental: Data were evaluated by analysis of variance (ANOVA) followed by Dunnett test for individual comparisons. […] Values were expressed as means±SD of three experiments.
The human neuroblastoma cells (SK-N-AS) were cultured in a DMEM medium and E18 rat primary cortical neurons were cultured for 8-10 days in Neurobasal medium. […] An MTT reduction assay was used to estimate cell viability.

[2] = test system: human neuroblastoma (SK-N-AS) cells; experiment: Cell viability, repeated daily exposure for 3 and 6 days, neuroblastoma cells; type: cell-based; details: 0.1-160 μM
Experimental: Analysis of variance (ANOVA) followed by a Dunnett test was used to compare treatment groups to controls. […] Values were expressed as means±SD of three experiments.
FIG. 3 show the effects of PROG exposure for 3 and 6 days on the viability of Neuroblastoma cells (SK-N-AS). Cells were exposed to different concentrations of PROG (0.1, 1, 5, 10, 20, 80, 160 μM) daily for 3 days and 6 days. The statistical analysis of data was performed with analysis of variance (ANOVA) followed by Dunnett test to compare several treatment group to a single control group. The significance of results was set at P<0.05. Values are expressed as Means±SD of three experiments. Significant difference *P<0.05 when compared to control.

[3] = test system: human glioblastoma cell line U87MG; experiment: Cell viability, repeated exposure, glioblastoma-1 cells; type: cell-based
Experimental: (§1) Cells were exposed to different concentrations of PROG daily for 3 days and 6 days by replacing culture medium containing PROG. The stock solution of PROG was prepared in DMSO (Final concentration: <5 μl/ml medium). Data were analyzed using analysis of variance (ANOVA) followed by Dunnett's test. Values are expressed as Means±SD of two independent experiments with duplicate samples. Significant difference *P<0.05 when compared to control values.

[4] = test system: human glioblastoma cell line U87dEGFR; experiment: Cell viability, repeated exposure, glioblastoma-2 cells; type: cell-based
Experimental: as §1

[5] = test system: U87MG glioblastoma cell line; experiment: Morphology of glioblastoma cells, phase contrast microscope; type: cell-based, human; details: high concentrations (40, 80 and 160 μM)
[6] = test system: human neuroblastoma xenograft; experiment: Mouse xenograft model of human neuroblastoma; type: in vivo, female athymic nude mice; details: after 8 days of treatment
From the text: The vehicle group received saline only. Data were normalized to the baseline values (day 1) and expressed as percent change in daily tumor growth. […] The vehicle group received saline only. Values are expressed as mean tumor size for the different animals in each group. The significance of results was set at P<0.05 two-tailed. Values are expressed as % change in Means±SEM of tumor volume in different groups. […] Tumors were allowed to grow to ˜200 to 250 mm^3 and mice were divided into groups. […] This regimen was planned to be continued for up to two weeks to examine maximum tumor burden. All treated animals are being compared to appropriate controls for analysis of rate of daily tumor growth, tumor volume and regression. Toxicity is being assessed daily by survival, activity and body weight.

neuroblastoma cells = details: 10 μM; cited from earlier work
breast cancer = details: single injection of depot progesterone prior to breast cancer therapy, over 1000 women, 65 months after diagnosis and treatment; cited from earlier work
glioblastoma = details: first study; cited from earlier work
[7] = repeated exposure 3 and 6 days, high doses

Compound: OC[C@H]1O[C@@H]2O[C@H]3[C@H](O)[C@@H](O)[C@@H](O[C@H]4[C@H](O)[C@@H](O)[C@@H](O[C@H]5[C@H](O)[C@@H](O)[C@@H](O[C@H]6[C@H](O)[C@@H](O)[C@@H](O[C@H]7[C@H](O)[C@@H](O)[C@@H](O[C@H]8[C@H](O)[C@@H](O)[C@@H](O[C@H]1[C@H](O)[C@H]2O)O[C@@H]8CO)O[C@@H]7CO)O[C@@H]6CO)O[C@@H]5CO)O[C@@H]4CO)O[C@@H]3CO [B-Cyclodextrin]
- cell death (PC-12 cells): could not induce cell death

Compound: CC(=O)[C@H]1CC[C@H]2[C@@H]3CCC4=CC(=O)CC[C@]4(C)[C@H]3CC[C@]12C [progesterone, pregn-4-ene-3,20-dione]
- cell death (MTT cell viability) [1]: significant cell death
- cell death ([2]; daily exposure for 3 days): significant (P<0.05) cell death in a concentration dependant manner
- cell death ([2]; daily exposure for 6 days, concentration dependant): cell death (P<0.05) was observed
- effectiveness of six days versus 3 days of treatment ([3]; repeated exposure): more effective than 3 days
- cell viability [3, 7]: killed both glioblastoma cell lines in a dose dependant manner
- effectiveness of six days versus 3 days of treatment ([4]; repeated exposure): more effective than 3 days
- cell viability [4, 7]: killed both glioblastoma cell lines in a dose dependant manner
- changes in cell morphology [5]: lose their original shape, become detached from the surface, and eventually die
- reduction of rate of tumor growth compared to saline vehicle ([6]; 50 mg/kg peritumoral injection once daily): ~50%
- reduction of rate of tumor growth compared to saline vehicle ([6]; 100 mg/kg peritumoral injection once daily): ~50%
- cell viability (neuroblastoma cells): significant decrease in cell viability
- reduction of mortality (breast cancer): more than 35%

Compound: Avastin: Avastin (bevacizumab), FDA approved to treat glioblastoma at progression after standard therapy
- patients who survived for at least 6 months without disease progressing (glioblastoma): 43%
- patients who survived for at least one year (glioblastoma): 38%
- patients with tumor shrinkage (glioblastoma): 28%
